The target in data set [1] is T1, Interleukin-1 receptor-associated kinase 4 (Homo sapiens, UniProt Q9NWZ3).
T1 sequence (Q9NWZ3 whole entry): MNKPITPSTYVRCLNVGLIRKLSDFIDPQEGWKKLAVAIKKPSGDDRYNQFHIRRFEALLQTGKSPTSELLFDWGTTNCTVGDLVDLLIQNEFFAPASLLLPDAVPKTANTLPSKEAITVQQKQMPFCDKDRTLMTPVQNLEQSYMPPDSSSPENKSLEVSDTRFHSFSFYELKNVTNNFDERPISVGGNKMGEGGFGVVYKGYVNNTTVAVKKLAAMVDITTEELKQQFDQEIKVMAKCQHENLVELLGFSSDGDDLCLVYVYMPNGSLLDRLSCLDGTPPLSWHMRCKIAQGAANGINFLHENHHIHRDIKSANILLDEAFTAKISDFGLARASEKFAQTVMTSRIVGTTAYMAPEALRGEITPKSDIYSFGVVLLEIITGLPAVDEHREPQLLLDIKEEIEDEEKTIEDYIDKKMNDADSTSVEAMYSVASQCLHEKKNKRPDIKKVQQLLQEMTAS
Put plainly: (§1) Inhibition of IRAK4 (unknown origin).

Data set [2] addresses Protein cereblon/Interleukin-1 receptor-associated kinase 4 (Mus musculus) (UniProt Q8C7D2+Q8R4K2). Put plainly: PROTAC activity at IRAK4/CRBN in mouse BaF3 cells assessed as reduction in IRAK4 level at 100 nM incubated for 12 hrs by Western blot analysis relative to control. The data set is classed as cell-based. The arrangement: scale not given: the % may be the effect or the level left. For orientation: Immunoblotting shows a protein as a band on a membrane.

In data set [3] the target is T2, Interleukin-1 receptor-associated kinase 4 (Homo sapiens) (UniProt Q9NWZ3).
T2 sequence (whole entry): T1 sequence (Q9NWZ3 whole entry)
Described as §1.

In data set [4] the target is Protein cereblon/Interleukin-1 receptor-associated kinase 4 (Homo sapiens, UniProt Q9NWZ3+Q96SW2). Put plainly: PROTAC activity at IRAK4/CRBN in HEK293T cells assessed as induction of IRAK4 degradation by immunoblotting analysis. The format is cell-based.
Sequence of Protein cereblon/Interleukin-1 receptor-associated kinase 4 (Q96SW2 whole entry, one chain of several): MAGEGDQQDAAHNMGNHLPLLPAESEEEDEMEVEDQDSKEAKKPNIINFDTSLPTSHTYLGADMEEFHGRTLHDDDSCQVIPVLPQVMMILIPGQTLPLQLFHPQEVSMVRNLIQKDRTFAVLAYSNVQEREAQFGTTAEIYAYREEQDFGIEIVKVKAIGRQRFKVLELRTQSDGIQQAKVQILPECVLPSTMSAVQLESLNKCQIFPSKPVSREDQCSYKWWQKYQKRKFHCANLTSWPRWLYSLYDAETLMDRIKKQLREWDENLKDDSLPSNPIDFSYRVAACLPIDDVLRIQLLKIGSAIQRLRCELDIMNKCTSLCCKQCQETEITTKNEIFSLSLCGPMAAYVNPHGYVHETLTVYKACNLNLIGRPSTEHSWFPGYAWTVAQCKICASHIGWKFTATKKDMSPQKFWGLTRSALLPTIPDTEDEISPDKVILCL
The target of data set [5] is T3, Interleukin-1 receptor-associated kinase 4 (Mus musculus) (UniProt Q8R4K2).
T3 sequence (whole entry): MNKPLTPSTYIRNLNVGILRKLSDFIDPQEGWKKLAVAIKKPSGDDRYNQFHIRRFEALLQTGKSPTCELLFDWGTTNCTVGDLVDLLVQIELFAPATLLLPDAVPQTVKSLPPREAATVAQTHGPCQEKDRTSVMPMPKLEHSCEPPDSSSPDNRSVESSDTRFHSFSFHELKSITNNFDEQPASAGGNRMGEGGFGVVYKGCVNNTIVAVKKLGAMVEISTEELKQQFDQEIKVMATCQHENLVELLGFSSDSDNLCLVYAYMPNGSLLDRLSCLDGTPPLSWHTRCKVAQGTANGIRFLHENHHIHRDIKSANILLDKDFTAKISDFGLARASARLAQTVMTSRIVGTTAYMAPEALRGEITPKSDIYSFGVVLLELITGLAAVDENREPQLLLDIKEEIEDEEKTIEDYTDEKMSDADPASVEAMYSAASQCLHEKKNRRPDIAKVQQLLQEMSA
Put plainly: Inhibition of IRAK4 in LPS-induced mouse RAW264.7 cells assessed as reduction in JNK level at 1 to 5 uM pretreated with LPS for 1 hr followed by compound administration and measured after 2 hrs by Western blotting analysis. The data set is classed as cell-based. The settings on record: dose 1-5 µM.

Data set [6] addresses T3, Interleukin-1 receptor-associated kinase 4 (Mus musculus). Put plainly: Inhibition of IRAK4 in LPS-induced mouse RAW264.7 cells assessed as reduction in ERK level at 1 to 5 uM pretreated with LPS for 1 hr followed by compound administration and measured after 2 hrs by Western blotting analysis. The data set is classed as cell-based. To be noted: dose 1-5 µM.
Data set [7] shares this target. Put plainly: Inhibition of IRAK4 in LPS-induced mouse RAW264.7 cells assessed as reduction in p38 level at 1 to 5 uM pretreated with LPS for 1 hr followed by compound administration and measured after 2 hrs by Western blotting analysis. The data set is classed as cell-based. To be noted: dose 1-5 µM.
The target is the same in data set [8]. Put plainly: Inhibition of IRAK4 in LPS-induced mouse RAW264.7 cells assessed as effect on IkappaB-alpha level at 1 to 5 uM pretreated with LPS for 1 hr followed by compound administration and measured after 2 hrs by Western blotting analysis. The format is cell-based. To be noted: dose 1-5 µM.
The target is the same in data set [9]. Put plainly: Inhibition of IRAK4 in LPS-induced mouse RAW264.7 cells assessed as reduction in p65 nuclear translocation at 1 to 5 uM pretreated with LPS for 1 hr followed by compound administration and measured after 2 hrs by immunofluorescence analysis. To be noted: dose 1-5 µM. The format is cell-based.
In data set [10] the test system is RAW264.7. Put plainly: Activation of NF-kappaB pathway in LPS-induced mouse RAW264.7 cells at 5 uM pretreated with compound for 1 hr followed by LPS-induction and measured after 6 hrs by flow cytometry analysis. The data set is classed as cell-based. To be noted: filed as activator, time 7.0 hrs. (A flow cytometer gives signals particle by particle.)
The target in data set [11] is Mitogen-activated protein kinase kinase kinase 19 (Homo sapiens) (UniProt Q56UN5). Put plainly: Inhibition of YSK4 (unknown origin) at 1 uM relative to control.
Data set [12] deals with Mitogen-activated protein kinase kinase kinase kinase 4 (Homo sapiens) (UniProt O95819). Put plainly: Inhibition of MAP4K4 (unknown origin) at 1 uM relative to control.
Data set [13] addresses Dual specificity mitogen-activated protein kinase kinase 5 (Homo sapiens) (UniProt Q13163). Put plainly: Inhibition of MEK5 (unknown origin) at 1 uM relative to control.
Data set [14] deals with Citron Rho-interacting kinase (Homo sapiens) (UniProt O14578). Put plainly: Inhibition of CIT (unknown origin) at 1 uM relative to control.
In data set [15] the target is Tyrosine-protein kinase JAK1 (Homo sapiens) (UniProt P23458). Put plainly: Inhibition of JAK1 (unknown origin) at 1 uM relative to control.
In data set [16] the target is Tyrosine-protein kinase JAK3 (Homo sapiens) (UniProt P52333). Put plainly: Inhibition of JAK3 (unknown origin) at 1 uM relative to control.
The target in data set [17] is Serine/threonine-protein kinase RIO1 (Homo sapiens) (UniProt Q9BRS2). Put plainly: Inhibition of RIOK1 (unknown origin) at 1 uM relative to control.
Sequence of Serine/threonine-protein kinase RIO1 (Homo sapiens) (Q9BRS2 whole entry): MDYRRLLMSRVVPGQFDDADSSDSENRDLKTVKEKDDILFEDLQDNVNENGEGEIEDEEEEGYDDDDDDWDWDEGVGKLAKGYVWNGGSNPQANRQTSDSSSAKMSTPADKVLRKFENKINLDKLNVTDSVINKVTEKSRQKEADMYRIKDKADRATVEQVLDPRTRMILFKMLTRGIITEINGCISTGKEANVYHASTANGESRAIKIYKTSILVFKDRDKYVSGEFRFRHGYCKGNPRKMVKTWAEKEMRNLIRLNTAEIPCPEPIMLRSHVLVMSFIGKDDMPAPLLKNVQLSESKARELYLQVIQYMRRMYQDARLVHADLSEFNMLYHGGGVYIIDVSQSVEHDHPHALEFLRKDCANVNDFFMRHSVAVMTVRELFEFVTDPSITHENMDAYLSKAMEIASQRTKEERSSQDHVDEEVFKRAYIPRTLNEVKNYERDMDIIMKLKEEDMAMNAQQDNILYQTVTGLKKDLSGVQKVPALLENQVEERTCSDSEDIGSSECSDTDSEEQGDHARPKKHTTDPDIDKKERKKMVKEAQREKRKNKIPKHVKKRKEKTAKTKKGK
Data set [18] has as its target TRAF2 and NCK-interacting protein kinase (Homo sapiens) (UniProt Q9UKE5). Put plainly: Inhibition of TNIK (unknown origin) at 1 uM relative to control.
The target in data set [19] is Serine/threonine-protein kinase RIO3 (Homo sapiens) (UniProt O14730). Put plainly: Inhibition of RIOK3 (unknown origin) at 1 uM relative to control.
Sequence of Serine/threonine-protein kinase RIO3 (Homo sapiens) (O14730 whole entry): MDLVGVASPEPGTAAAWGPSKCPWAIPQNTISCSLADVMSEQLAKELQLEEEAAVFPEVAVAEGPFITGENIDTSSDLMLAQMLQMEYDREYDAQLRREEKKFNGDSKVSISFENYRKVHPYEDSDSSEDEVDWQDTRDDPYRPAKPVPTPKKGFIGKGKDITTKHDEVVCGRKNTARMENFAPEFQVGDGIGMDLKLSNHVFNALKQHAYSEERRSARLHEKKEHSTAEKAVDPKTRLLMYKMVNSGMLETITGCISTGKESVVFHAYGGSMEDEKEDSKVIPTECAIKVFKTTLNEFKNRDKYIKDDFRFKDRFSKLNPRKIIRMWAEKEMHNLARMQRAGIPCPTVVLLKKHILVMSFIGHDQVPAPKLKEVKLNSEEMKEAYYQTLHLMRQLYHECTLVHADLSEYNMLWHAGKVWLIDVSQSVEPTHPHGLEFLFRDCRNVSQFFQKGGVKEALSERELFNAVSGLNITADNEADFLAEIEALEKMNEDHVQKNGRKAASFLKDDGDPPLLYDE
For data set [20], the target named is Interleukin-1 receptor-associated kinase 1 (Homo sapiens) (UniProt P51617). Put plainly: Inhibition of IRAK1 (unknown origin) at 1 uM relative to control.
Sequence of Interleukin-1 receptor-associated kinase 1 (Homo sapiens) (P51617 whole entry, looked up): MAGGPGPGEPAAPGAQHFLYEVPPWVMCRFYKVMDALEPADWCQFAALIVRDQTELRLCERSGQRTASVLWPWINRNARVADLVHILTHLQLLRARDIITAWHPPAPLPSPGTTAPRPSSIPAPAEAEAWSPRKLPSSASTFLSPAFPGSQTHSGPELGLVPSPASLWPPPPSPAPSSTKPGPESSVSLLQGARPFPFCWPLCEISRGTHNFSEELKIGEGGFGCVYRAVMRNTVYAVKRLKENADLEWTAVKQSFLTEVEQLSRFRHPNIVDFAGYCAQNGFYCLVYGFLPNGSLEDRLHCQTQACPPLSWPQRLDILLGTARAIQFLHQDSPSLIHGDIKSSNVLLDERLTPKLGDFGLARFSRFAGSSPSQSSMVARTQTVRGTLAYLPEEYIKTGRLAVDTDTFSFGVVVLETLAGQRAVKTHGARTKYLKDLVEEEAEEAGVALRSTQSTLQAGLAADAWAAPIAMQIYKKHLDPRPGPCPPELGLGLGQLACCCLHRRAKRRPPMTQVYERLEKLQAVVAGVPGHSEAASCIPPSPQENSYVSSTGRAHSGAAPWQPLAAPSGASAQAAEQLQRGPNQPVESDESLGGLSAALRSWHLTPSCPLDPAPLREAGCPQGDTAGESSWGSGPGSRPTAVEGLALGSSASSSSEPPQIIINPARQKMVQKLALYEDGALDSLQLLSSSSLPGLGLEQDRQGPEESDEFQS
Data set [21] addresses MAP kinase p38 (Mus musculus) (UniProt P47811+O08911+Q9WUI1+Q9Z1B7). Put plainly: Inhibition of MAPK phosphorylation in LPS-induced mouse RAW264.7 cells at 1 uM pretreated with compound for 1 hr followed by LPS-induction and measured after 2 hrs by Western blot analysis. The data set is classed as cell-based. The settings on record: time 3.0 hrs.
In data set [22] the test system is RAW264.7. Put plainly: Activation of NF-kappaB pathway in LPS-induced mouse RAW264.7 cells expressing EGFP at 5 uM pretreated with compound for 1 hr followed by LPS-induction and measured after 6 hrs by flow cytometry analysis. The format is cell-based. The settings on record: filed as activator, time 7.0 hrs.
Data set [23] relates to RAW264.7. Put plainly: Activation of NF-kappaB pathway in LPS-induced mouse RAW264.7 cells expressing EGFP at 5 uM pretreated with compound for 1 hr followed by LPS-induction and measured at 15 min by flow cytometry analysis. The data set is classed as cell-based. The settings on record: filed as activator, time 75.0 min.
The test system of data set [24] is Mus musculus. Put plainly: Anti-inflammatory activity against LPS-induced acute […] injury C57BL/6 mouse model assessed as reduction in ERK level at 20 mg/kg, IG pretreated with compound for 12 hrs followed by LPS-induction and measured after 6 hrs. The format is functional, organism-based. The settings on record: time 18.0 hrs.
The nature of data set [25]: Drug metabolism in rat hepatocyte assessed as amide hydrolysis-mediated metabolite formation by LC-MS/MS analysis. The data set is classed as ADME, cell-based. To be noted: hepatocytes.

Calls of active or inactive are those of the source. The calls are words filed in the database; no cut-off is given here.

Sequence of Protein cereblon/Interleukin-1 receptor-associated kinase 4 (Mus musculus) (Q8C7D2 whole entry, looked up, one chain of several): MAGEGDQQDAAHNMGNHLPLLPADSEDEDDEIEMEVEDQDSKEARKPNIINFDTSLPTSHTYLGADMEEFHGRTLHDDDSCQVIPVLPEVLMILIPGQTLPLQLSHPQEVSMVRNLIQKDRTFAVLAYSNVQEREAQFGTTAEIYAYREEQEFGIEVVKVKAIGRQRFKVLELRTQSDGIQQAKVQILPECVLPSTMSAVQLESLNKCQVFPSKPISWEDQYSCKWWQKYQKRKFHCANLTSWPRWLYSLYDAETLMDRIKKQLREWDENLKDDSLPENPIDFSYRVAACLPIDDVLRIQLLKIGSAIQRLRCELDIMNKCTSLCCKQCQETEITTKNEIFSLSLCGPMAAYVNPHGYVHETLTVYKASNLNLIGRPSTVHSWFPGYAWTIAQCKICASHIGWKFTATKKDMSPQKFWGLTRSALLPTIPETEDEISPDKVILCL
Sequence of TRAF2 and NCK-interacting protein kinase (Homo sapiens) (Q9UKE5 whole entry, looked up): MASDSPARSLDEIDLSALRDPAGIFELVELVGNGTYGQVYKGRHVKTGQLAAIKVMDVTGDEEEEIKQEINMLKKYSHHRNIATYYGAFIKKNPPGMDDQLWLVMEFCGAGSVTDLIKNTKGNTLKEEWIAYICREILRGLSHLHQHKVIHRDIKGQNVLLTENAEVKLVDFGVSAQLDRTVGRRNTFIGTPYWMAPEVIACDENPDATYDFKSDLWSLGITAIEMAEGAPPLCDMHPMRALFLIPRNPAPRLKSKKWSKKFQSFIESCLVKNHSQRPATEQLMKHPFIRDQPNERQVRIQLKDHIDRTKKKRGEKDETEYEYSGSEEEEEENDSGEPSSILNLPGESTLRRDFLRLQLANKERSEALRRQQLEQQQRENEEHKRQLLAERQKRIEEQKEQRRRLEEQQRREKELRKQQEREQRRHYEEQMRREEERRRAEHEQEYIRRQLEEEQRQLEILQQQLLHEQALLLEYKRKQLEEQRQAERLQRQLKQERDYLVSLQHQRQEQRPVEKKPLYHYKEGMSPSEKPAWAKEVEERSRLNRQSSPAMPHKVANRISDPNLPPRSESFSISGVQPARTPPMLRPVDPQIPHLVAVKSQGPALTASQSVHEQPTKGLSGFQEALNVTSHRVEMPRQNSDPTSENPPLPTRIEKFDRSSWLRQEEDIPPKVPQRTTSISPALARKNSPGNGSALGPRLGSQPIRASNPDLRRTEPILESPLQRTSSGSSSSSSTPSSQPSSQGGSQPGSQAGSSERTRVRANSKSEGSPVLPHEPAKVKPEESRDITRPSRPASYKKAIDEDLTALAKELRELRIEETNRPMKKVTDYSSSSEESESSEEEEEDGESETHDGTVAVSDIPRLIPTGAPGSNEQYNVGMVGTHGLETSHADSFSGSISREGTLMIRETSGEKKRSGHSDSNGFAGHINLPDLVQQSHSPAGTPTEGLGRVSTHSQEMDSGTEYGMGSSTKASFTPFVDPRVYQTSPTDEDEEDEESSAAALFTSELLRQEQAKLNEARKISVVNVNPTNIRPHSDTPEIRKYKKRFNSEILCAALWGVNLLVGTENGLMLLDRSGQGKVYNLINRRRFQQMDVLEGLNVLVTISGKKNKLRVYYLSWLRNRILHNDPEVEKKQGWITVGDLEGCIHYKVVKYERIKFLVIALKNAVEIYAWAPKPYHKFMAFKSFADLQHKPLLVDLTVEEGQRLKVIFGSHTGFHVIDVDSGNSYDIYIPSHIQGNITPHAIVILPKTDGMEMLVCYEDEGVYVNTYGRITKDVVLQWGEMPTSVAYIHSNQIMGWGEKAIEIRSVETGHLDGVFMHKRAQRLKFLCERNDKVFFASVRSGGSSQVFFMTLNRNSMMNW
Sequence of Dual specificity mitogen-activated protein kinase kinase 5 (Homo sapiens) (Q13163 whole entry): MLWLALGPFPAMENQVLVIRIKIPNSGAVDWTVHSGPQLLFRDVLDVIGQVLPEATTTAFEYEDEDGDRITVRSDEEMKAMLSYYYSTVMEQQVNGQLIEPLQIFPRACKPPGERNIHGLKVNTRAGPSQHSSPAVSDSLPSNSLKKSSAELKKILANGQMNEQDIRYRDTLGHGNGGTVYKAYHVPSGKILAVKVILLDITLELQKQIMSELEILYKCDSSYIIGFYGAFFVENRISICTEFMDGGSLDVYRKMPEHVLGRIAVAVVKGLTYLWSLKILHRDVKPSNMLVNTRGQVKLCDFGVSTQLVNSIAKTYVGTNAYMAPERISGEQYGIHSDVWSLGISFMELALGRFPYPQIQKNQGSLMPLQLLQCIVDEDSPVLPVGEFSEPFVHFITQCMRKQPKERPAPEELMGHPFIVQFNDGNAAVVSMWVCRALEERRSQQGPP

In the case of `COc1cc(N2CCN(C(=O)CCCCCNc3cccc4c3C(=O)N(C3CCC(=O)NC3=O)C4=O)CC2)ccc1NC(=O)c1cccc(-c2ccn[nH]2)n1` (stereo not given), in data set [1], the IC50 (usually the concentration that gives 50% inhibition) is below 100 nM. Further, the Activity in [2] was found to be 55%.
`COc1cc(N2CCN(CC(=O)NCCCCCCCCNc3cccc4c3C(=O)N(C3CCC(=O)NC3=O)C4=O)CC2)ccc1NC(=O)c1cccc(-c2ccn[nH]2)n1` (stereo not given): the inhibition (as a rule, the relative decrease from the control value, in per cent) in [3] was “inactive”.
`CC(C)Nc1cc(-n2ccc3cc(C#N)cnc32)ncc1C(=O)NC1CCC(C(=O)NCCOCCNC(=O)COc2cccc3c2C(=O)N(C2CCC(=O)NC2=O)C3=O)CC1` (stereo not given): the DC50 (usually the midpoint of the concentration-degradation curve) in [4] stood at 405 nM.
In the case of `COc1cc(N2CCN(CC(=O)NCCOCCOCCNC(=O)C3CCN(c4ccc5c(c4)C(=O)N(C4CCC(=O)NC4=O)C5=O)CC3)CC2)ccc1NC(=O)c1cccc(-c2ccn[nH]2)n1` (stereo not given), the inhibition entry in data set [3] is “inactive”.
The same measure, in the same setting: the same measure for `COc1cc(N2CCN(CC(=O)NCCOCCOCCOCCOCCNc3cccc4c3C(=O)N(C3CCC(=O)NC3=O)C4=O)CC2)ccc1NC(=O)c1cccc(-c2ccn[nH]2)n1` (stereo not given): “inactive”.
Turning to `COc1cc(N2CCN(CC(=O)NCCNc3cccc4c3C(=O)N(C3CCC(=O)NC3=O)C4=O)CC2)ccc1NC(=O)c1cccc(-c2ccn[nH]2)n1` (stereo not given), the IC50 in data set [1] is below 100 nM. Also, the Activity in data set [2] was found to be 63%.
For the compound `COc1cc(N2CCOCC2)ccc1NC(=O)c1cccc(-c2ccn[nH]2)n1`, the inhibition entry in data set [5], in data set [6], in data set [7], in [8], in data set [9] and in data set [21] was “Active” in each case. The result in [10], in data set [22], in data set [23] and in data set [24] was Active. The Activity in [2] came out at 100%. Moreover, the inhibition entry in data set [11], in data set [12], in data set [13], in data set [14], in [15] and in [16] was “inactive” each time. Also, the inhibition result in data set [17] and in [18] was “inactive” each time. Further, the inhibition in [19] and in data set [20] was above 95% throughout.
In the case of `COc1cc(N2CCN(C(=O)C3CCN(c4ccc5c(c4)C(=O)N(C4CCC(=O)NC4=O)C5=O)CC3)CC2)ccc1NC(=O)c1cccc(-c2ccn[nH]2)n1` (stereo not given), the inhibition entry in [3] is “inactive”.
The compound `COc1cc(N2CCN(C(=O)CCCCCCCCCCCNc3cccc4c3C(=O)N(C3CCC(=O)NC3=O)C4=O)CC2)ccc1NC(=O)c1cccc(-c2ccn[nH]2)n1` (stereo not given) displayed an IC50 in data set [1] below 100 nM. The Activity in data set [2] is 32%.
`COc1cc(N2CCN(C(=O)C3CN(c4ccc5c(c4)C(=O)N(C4CCC(=O)NC4=O)C5=O)C3)CC2)ccc1NC(=O)c1cccc(-c2ccn[nH]2)n1` (stereo not given) showed an IC50 in data set [1] below 100 nM. In addition, the Activity in data set [2] is 26%.
With `COc1cc(N2CCN(CC(=O)NCCOCCOCCNc3cccc4c3C(=O)N(C3CCC(=O)NC3=O)C4=O)CC2)ccc1NC(=O)c1cccc(-c2ccn[nH]2)n1` (stereo not given), the Drug metabolism result in [25] is listed as “Metabolite_Detected”.

Values taken from ChEMBL document CHEMBL5506038, “Discovery of LC-MI-3: A Potent and Orally Bioavailable Degrader of Interleukin-1 Receptor-Associated Kinase 4 for the Treatment of Inflammatory Diseases” (J Med Chem, 2024).
